Data published in PMC11125953 (Viruses, 2024).
Counter-ions that a name gives are not always drawn. Like-named read-outs stand apart in the source and are kept apart here.

Key:
[1] = test system: EHV-4 405/76 reference strain; assay: microbe, parasite or virus in culture
[2] = test system: EHV-4 405/76 reference strain; assay: RTCA; type: cell-based, Equid herpesvirus 4; settings: area under normalized Cell Index curves, 0-120 hpi, EHV-4-infected E. Derm cells
[3] = test system: EHV-4 405/76 reference strain; settings: for CIT50 increase: RTCA, EHV-4-infected E. Derm cells; for Si (CC50/EC50, RTCA): ratio of CC50 to EC50 obtained by RTCA
[4] = Cytotoxicity by impedance using RTCA; settings: horse, E. Derm cells
[5] = Cytotoxicity by CellTiter-Glo; settings: horse
[6] = test system: EHV-4 405/76 reference strain; assay: microbe, parasite or virus in culture; remark: listed apart in the source
[7] = test system: EHV-4 405/76 reference strain; settings: ratio of CC50 to EC50 obtained by qPCR
[8] = test system: mice; settings: mouse, in vivo; cited from earlier work
[9] = in vitro; settings: horse
[10] = in vitro; settings: horse; remark: listed apart in the source
[11] = in vivo; cited from earlier work
[12] = Equid alphaherpesvirus 4, read-out: qPCR EC50 (µM ± S.D)
[13] = Equid alphaherpesvirus 4, read-out: qPCR EC50 (µg/mL ± S.D)
[14] = Equid alphaherpesvirus 4, read-out: RTCA EC50 (µM ± S.D)
[15] = Equid alphaherpesvirus 4, read-out: RTCA EC50 (µg/mL ± S.D)

SMILES | EC50 [1, 12] | EC50 [1, 13] | AUCn ([2]; 0.4 µM) | AUCn ([2]; 2 µM) | AUCn ([2]; 10 µM) | Si (CC50/EC50, RTCA) [3] | CC50 [4] | EC50 [6, 14] | SI (CC50 CellTiter-Glo/EC50 qPCR) [7] | AUCn ([2]; 50 µM) | CC50 ([5]; E. Derm cells) | EC50 [6, 15] | CC50 [9] | CC50 [10] | further results
C[C@@]1(CO)[C@H](O)CC[C@@]2(C)[C@H]1CC[C@H]1C[C@@H]3C[C@@]12CC[C@]3(O)CO [Aphidicolin] | 0.31 ± 0.09 µM | 0.11 ± 0.03 µg/mL | 27.44 | 81.72 | 106.29 | >23.15 | > 50 µM | 2.16 ± 0.18 µM | >161.29 | – | – | – | – | – | CIT50 increase ([3]; 1.25 µM): 7.48 ± 2.69 h; CIT50 increase ([3]; 2.5 µM): 22.43 ± 4.89 h; CC50 [5]: > 50 µM
Cc1nc(N(C)C(=O)Cc2ccc(-c3ccccn3)cc2)sc1S(N)(=O)=O [BAY 57-1293, pritelivir] | 3.31 ± 0.89 µM | 1.33 ± 0.36 µg/mL | 27.43 | 27.62 | 44.70 | >2.81 | > 50 µM | 17.8 ± 1.2 µM | >15.11 | 145.59 | > 50 µM | 7.15 ± 0.48 µg/mL | – | – | –
Nc1ccn(C[C@@H](CO)OCP(=O)(O)O)c(=O)n1 [Cidofovir] | 7.99 ± 3.38 µM | 2.23 ± 0.94 µg/mL | 38.54 | 42.07 | 40.56 | >3.98 | > 50 µM | 12.6 ± 4.32 µM | >6.26 | 59.40 | > 50 µM | 3.5 ± 1.21 µg/mL | – | – | –
Nc1ncn([C@H]2C[C@H](O)[C@@H](CO)O2)c(=O)n1 [Decitabine] | 0.28 ± 0.05 µM | 0.06 ± 0.01 µg/mL | 73.51 | 93.80 | 120.54 | >43.10 | > 50 µM | 1.16 ± 0.31 µM | >178.57 | 128.21 | > 50 µM | 0.26 ± 0.07 µg/mL | – | – | CIT50 increase ([3]; 0.78 µM): 25.66 ± 10.74 h; CIT50 increase ([3]; 1.56 µM): 30.13 ± 15.34 h; toxic concentration [8]: ~25 µM
Nc1nc(O)c2ncn(COC(CO)CO)c2n1 [Ganciclovir] | 1.32 ± 1.06 µM | 0.34 ± 0.27 µg/mL | 57.9 | 74.3 | 116.3 | >12.35 | – | 4.05 ± 0.22 µM | >37.88 | 138.7 | – | 1.03 ± 0.06 µg/mL | > 50 µM | > 50 µM | –
O=c1[nH]c(=O)n([C@H]2C[C@H](O)[C@@H](CO)O2)cc1I [Idoxuridine] | 7.49 ± 1 µM | 2.65 ± 0.35 µg/mL | 36.8 | 30.6 | 63.0 | >1.48 | – | 33.8 ± 15.8 µM | >6.68 | 143.7 | – | 11.9 ± 5.61 µg/mL | > 50 µM | > 50 µM | –
CC(C)[C@H](N)C(=O)OCC(CO)OCn1cnc2c(=O)nc(N)[nH]c21 (stereo partly drawn) [Valganciclovir hydrochloride] | 3.6 ± 1.02 µM | 1.28 ± 0.36 µg/mL | 33.79 | 42.41 | 75.80 | >5.24 | – | 9.55 ± 2.81 µM | >13.89 | 145.98 | – | 3.38 ± 1 µg/mL | > 50 µM | > 50 µM | improvement of the bioavailability of ganciclovir by oral valganciclovir [11]: 41 ± 20%
Nc1ncnc2c1ncn2[C@@H]1O[C@H](CO)[C@@H](O)[C@@H]1O [Vidarabine] | 13.7 ± 1.92 µM | 3.91 ± 0.55 µg/mL | 41.3 | 35.7 | 48.7 | >2.94 | – | 17 ± 4.5 µM | – | 71.5 | – | 4.85 ± 1.28 µg/mL | > 50 µM | > 50 µM | –
